Data as given in patent US20070275977A1, “N-OXIDES OF PYRIDYLMETHYL -PIPERAZINE AND -PIPERIDINE DERIVATIVES” (priority 2006, published 2007).

Experiments:
[1] = Toxicological studies, plasma of rats; type: in vivo; conditions: rats dosed with SLV313
Source text: (§1) Psychotropic pyridylmethyl -piperazine and -piperidine derivatives are disclosed in EP 0 908 458. […] By now it is very well known that N-oxides are metabolites of many tertiary amines, and in most cases are also intermediates between tertiary amines and their N-dealkylated analogs. Most, but not all, tertiary amine drugs give rise to N-oxides. For instance, this is the case with morphine, imipramine, promazine, cinnarizine and nicotine, to name just a few. How much N-oxidation takes place varies from trace amounts to a near quantitative conversion. […] The most famous example of these is chlordiazepoxide (Librium®), one of the most frequently used drugs in psychiatric and general medicine. […] Some N-oxides undergo nearly quantitative reductive conversion to the corresponding tertiary amines and in other cases the conversion is a mere trace reaction or even completely absent (Bickel, 1969). Thus, the formation of N-oxides and their corresponding tertiary amines is unpredictable. […] When they are, the reaction can be a mere trace or nearly quantitative.

[2] = Toxicological studies, plasma of dogs; type: in vivo; conditions: dogs dosed with SLV313
Source text: as §1

Serotonin-5-HT3 = Serotonin-5-HT3 (Rattus norvegicus, UniProt P35563); assay: In vitro receptor affinity, Serotonin-5-HT3; type: binding; conditions: radioligand [3H]-GR 38032F, read-out: K1 (in vitro receptor affinity)
Description: (§2) ln vitro affinity for neurotransmitter receptors: The binding data collected below were either obtained by CE REP (128, rue Danton, 92500 Rueil-Malmaison, France) or at Solvay Pharmaceuticals B.V. (C. J. van Houtenlaan 36, 1381 CP Weesp, The Netherlands), using well documented standard procedures. The affinities for dopamine-D2 and 5-HT1A receptors for instance, were measured as described by Creese (1997) and Gozlan (1983) respectively.

5-HT reuptake = 5-HT reuptake (Homo sapiens, UniProt P31645); assay: In vitro receptor affinity, 5-HT reuptake; type: binding; conditions: radioligand [3H]-paroxetine, read-out: K1 (in vitro receptor affinity)
Description: as §2

Serotonin-5-HT1A = biological target: T1, Serotonin-5-HT1A (Homo sapiens, UniProt P08908); assay: In vitro receptor affinity, Serotonin-5-HT1A; type: binding; conditions: radioligand [3H]-8-OH-DPAT, read-out: K1 (in vitro receptor affinity)
T1 sequence (P08908 1-422): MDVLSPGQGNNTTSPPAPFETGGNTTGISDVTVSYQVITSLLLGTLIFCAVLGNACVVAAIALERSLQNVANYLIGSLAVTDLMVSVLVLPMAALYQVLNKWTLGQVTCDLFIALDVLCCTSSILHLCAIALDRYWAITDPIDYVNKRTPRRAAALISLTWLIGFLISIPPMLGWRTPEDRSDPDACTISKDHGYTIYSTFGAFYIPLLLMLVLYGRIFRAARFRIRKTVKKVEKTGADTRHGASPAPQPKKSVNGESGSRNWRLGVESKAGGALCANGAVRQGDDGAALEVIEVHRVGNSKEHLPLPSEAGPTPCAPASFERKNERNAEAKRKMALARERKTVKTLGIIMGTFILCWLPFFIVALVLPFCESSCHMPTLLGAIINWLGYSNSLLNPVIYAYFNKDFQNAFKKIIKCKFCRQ
Description: as §2

Muscarine-M5 = Muscarine-M5 (Homo sapiens, UniProt P08912); assay: In vitro receptor affinity, Muscarine-M5; type: binding; conditions: radioligand [3H]-4-DAMP, read-out: K1 (in vitro receptor affinity)
Description: as §2

Histamine-H1 = Histamine-H1 (Homo sapiens, UniProt P35367); assay: In vitro receptor affinity, Histamine-H1; type: binding; conditions: radioligand [3H]-pyrilamine, read-out: K1 (in vitro receptor affinity)
Description: as §2

[3] = Plasma concentrations in mice after i.v. or p.o. administration, blood analyzed by LC-MS; type: in vivo; conditions: i.v. or p.o.
Description: The LC-MS system consists of 2 Perkin elmer series 200 micro pumps. The pumps were connected to each other by a 50 pI tee mixer, and connected to a Gilson 215 auto sampler. The method was as follows:
The auto sampler was connected to a Waters Atlantis C18 30*4.6 mm column with 3 μm particles. The column was thermo stated in a Perkin Elmer series 200 column oven at 40° C. The column was connected to a Perkin Elmer series 200 UV meter with a 2.7 μl flowcel. The wavelength was set to 254 nm. The UV meter was connected to a Sciex API 150EX mass spectrometer. The mass spectrometer had the following parameters: Scanrange:150-900 a.m.u., polarity: positive; scan mode: profile; resolution Q1: UNIT; step size: 0.10 a.m.u.; time per scan: 0.500 sec; NEB: 10; CUR: 10; IS: 5200; TEM: 325; DF: 30; FP: 225 and EP: 10. The light scattering detector was connected to the Sciex API 150. The light scattering detector was a Sedere Sedex 55 operating at 50° C. and 3 bar N2. The complete system was controlled by a G3 powermac.
For oral (p.o.) administration: to the desired quantity (0.5-5 mg) of the solid test compound in a glass tube, some glass beads were added and the solid was milled by vortexing for 2 minutes. After addition of 1 ml of a solution of 1% methylcellulose in water and 2% (v/v) of Poloxamer 188 (Lutrol F68), the compound was suspended by vortexing for 10 minutes. The pH was adjusted to 7. […]

[4] = Metabolism studies in humans; type: in vivo; conditions: in man (also not in any animal species used in toxicology studies)
Source text: as §1

[5] = Pharmacological profile in vivo (overall statement); conditions: in vivo
Description: Lower lip retraction, an in vivo animal model for serotonin 5-HT1A receptor agonistic activity, was measured according to the method described by Berendsen (1989); Apomorphine-induced climbing behaviour in mice, an in vivo animal model for dopamine-D2 receptor antagonistic activity, was determined according to the method described by Costall (1978).

Dopamine-D3 = Dopamine-D3 (Homo sapiens, UniProt P35462); assay: In vitro receptor affinity, Dopamine-D3; type: binding; conditions: radioligand [3H]-spiperone, read-out: K1 (in vitro receptor affinity)
Description: as §2

Dopamine-D2 = Dopamine-D2 (Homo sapiens, UniProt P14416); assay: In vitro receptor affinity, Dopamine-D2; type: binding; conditions: radioligand [3H]-spiperone, read-out: K1 (in vitro receptor affinity)
Description: as §2

[6] = system: neurotransmitter receptors; assay: Pharmacological profile in vitro (overall statement)
Description: as §2
In vitro (ant)agonistic activity at human D2 receptors and 5-HT1A receptors was measured according to the methods described by Solomon (1974) and Weiss (1985) respectively, on the formation of adenylate cyclase in CHO cell-lines expressing these cloned receptors.

Serotonin-5-HT3, sequence (P35563 24-483): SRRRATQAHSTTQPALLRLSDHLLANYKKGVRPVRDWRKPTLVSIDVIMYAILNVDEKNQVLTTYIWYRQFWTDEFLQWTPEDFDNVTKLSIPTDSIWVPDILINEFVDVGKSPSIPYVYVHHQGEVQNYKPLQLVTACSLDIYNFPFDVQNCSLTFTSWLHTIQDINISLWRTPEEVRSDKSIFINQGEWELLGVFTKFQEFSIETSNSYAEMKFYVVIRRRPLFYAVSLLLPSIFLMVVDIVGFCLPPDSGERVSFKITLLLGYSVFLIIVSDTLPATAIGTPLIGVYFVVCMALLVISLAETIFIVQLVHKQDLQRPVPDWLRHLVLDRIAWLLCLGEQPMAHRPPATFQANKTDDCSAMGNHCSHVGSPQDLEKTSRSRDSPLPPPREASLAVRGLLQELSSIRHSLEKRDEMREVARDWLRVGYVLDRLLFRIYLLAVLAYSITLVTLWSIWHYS
Histamine-H1, sequence (P35367 whole entry): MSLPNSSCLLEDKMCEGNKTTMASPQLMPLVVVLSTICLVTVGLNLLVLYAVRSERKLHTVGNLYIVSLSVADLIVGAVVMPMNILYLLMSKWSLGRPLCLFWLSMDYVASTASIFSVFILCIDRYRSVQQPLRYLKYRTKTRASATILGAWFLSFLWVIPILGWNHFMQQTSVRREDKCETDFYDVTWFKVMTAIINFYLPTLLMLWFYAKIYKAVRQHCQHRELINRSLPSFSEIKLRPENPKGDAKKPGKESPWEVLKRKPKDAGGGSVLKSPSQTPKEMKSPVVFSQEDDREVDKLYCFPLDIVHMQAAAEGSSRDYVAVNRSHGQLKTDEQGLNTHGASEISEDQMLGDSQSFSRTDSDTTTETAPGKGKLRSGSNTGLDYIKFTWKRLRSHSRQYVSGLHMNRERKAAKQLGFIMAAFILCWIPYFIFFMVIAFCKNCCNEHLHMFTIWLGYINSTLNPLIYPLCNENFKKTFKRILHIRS
Muscarine-M5, sequence (P08912 whole entry): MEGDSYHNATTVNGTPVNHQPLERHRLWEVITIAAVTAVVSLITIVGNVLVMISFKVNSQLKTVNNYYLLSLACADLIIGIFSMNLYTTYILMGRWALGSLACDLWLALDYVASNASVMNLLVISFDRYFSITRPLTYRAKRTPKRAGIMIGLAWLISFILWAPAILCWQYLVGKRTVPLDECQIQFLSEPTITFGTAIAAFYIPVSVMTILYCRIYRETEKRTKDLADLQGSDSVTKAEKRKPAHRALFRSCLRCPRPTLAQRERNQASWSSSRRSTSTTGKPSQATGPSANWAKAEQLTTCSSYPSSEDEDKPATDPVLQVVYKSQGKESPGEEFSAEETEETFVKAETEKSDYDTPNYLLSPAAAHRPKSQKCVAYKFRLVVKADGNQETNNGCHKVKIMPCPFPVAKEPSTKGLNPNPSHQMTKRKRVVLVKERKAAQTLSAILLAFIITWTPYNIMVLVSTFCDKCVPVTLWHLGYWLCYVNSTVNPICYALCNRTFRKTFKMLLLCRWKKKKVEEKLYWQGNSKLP
5-HT reuptake, sequence (P31645 whole entry): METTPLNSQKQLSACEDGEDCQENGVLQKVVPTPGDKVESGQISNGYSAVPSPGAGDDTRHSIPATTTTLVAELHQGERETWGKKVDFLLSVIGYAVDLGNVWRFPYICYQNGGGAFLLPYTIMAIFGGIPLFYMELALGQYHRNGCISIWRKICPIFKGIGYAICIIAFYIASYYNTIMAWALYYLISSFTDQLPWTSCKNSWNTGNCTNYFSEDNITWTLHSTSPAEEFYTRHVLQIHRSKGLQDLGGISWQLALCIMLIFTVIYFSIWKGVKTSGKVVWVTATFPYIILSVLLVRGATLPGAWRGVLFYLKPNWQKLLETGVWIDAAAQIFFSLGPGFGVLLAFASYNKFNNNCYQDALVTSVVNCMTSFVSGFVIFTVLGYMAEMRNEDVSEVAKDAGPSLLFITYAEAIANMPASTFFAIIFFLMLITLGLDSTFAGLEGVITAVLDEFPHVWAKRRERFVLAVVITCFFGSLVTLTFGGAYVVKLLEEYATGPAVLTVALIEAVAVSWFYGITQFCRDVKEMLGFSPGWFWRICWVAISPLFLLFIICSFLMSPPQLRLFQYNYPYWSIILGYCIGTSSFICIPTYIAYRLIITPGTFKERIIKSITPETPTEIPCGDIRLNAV
Dopamine-D2, sequence (P14416 whole entry): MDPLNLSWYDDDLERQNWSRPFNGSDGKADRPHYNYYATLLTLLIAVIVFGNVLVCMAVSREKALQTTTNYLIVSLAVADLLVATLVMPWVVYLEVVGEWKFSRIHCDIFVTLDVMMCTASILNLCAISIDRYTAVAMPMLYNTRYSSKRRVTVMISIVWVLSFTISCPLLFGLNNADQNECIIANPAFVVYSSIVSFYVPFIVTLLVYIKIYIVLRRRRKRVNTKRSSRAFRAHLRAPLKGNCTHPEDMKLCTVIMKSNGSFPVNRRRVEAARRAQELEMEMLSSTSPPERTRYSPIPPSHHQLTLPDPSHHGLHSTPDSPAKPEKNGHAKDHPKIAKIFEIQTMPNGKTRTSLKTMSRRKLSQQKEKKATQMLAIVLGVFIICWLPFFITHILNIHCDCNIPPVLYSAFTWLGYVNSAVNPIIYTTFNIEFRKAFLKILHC
Dopamine-D3, sequence (P35462 whole entry): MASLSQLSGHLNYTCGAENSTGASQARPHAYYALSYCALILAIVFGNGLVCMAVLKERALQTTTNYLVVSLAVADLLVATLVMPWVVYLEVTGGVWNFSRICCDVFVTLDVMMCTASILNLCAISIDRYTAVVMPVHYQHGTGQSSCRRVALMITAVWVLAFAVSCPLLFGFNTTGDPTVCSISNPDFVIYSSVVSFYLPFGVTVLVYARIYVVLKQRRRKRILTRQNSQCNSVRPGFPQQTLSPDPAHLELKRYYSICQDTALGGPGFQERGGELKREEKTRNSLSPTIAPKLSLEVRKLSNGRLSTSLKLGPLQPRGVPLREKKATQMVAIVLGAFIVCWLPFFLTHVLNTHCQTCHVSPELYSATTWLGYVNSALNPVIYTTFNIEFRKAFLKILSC

| SMILES | pyridine-N-oxide in plasma [1] | pyridine-N-oxide in plasma [2] | Ki (Serotonin-5-HT3) | Ki (5-HT reuptake) | Ki (Serotonin-5-HT1A) | Ki (Muscarine-M5) | Ki (Histamine-H1) | metabolism to piperazine-N-oxide [3] | piperazine-N-oxide as a metabolite [4] | pharmacological profile/potency in vivo relative to SLV313 [5] | Ki (Dopamine-D3) | Ki (Dopamine-D2) | melting point | pharmacological profile/activity in vitro relative to parent SLV313 [6] |
| --- | --- | --- | --- | --- | --- | --- | --- | --- | --- | --- | --- | --- | --- | --- |
| Fc1ccc(-c2cncc(CN3CCN(c4cccc5c4OCCO5)CC3)c2)cc1 [SLV313, 3-[[4-(2,3-dihydro-1,4-benzodioxin-5-yl)-1-piperazinyl]methyl]-5-(4-fluorophenyl)pyridine, reference compound] | could not be demonstrated | could not be demonstrated | > 1000 nM | > 1000 nM | 0.8 nM | > 1000 nM | > 1000 nM | not metabolized to its piperazine-N-oxide | has not been detected as a metabolite |  |  |  |  |  |
| [O-][n+]1cc(CN2CCN(c3cccc4c3OCCO4)CC2)cc(-c2ccc(F)cc2)c1 [pyridine N-oxide, 1-(2,3-dihydro-1,4-benzodioxin-5-yl)-4-[[5-(4-fluorophenyl)-1-oxido-3-pyridinyl]methyl]-piperazine] |  |  | > 10000 nM | 320 nM | 0.4 nM | > 10000 nM | > 10000 nM |  |  | identical | 8 nM | 5 nM | 171 °C | identical |
